For series [1], the system named is abdominal aortic aneurysm. In words: Abdominal aortic aneurysm induction model, preventive forced administration (Examples 1 and 2). It counts as in vivo, rat. The following applies: for Rupture rate of abdominal aortic aneurysm: among rats with observed aneurysm, control group 28.6; for Rupture confirmed (abdominal aortic aneurysm) / Rupture not confirmed (abdominal aortic aneurysm): number of rats among rats with observed aneurysm; for Survival rate: Example 2, FIG. 1; for Diameter of the aorta in the abdominal aortic aneurysm induction part: Example 2, FIG. 2, after completion of the test, control group about 4 MM. Here is the method: SD-male rats of 4 weeks old (70 to 90 G) were used. Eighteen rats and eight rats were prepared as a control group and a medium chain fatty acid administration group, respectively.
Upon arrival, all rats were preliminarily fed normal feed without additional supplements for one week. Then, the medium chain fatty acid administration group was fed normal feed and forcibly administered with high-content neutral fats (decanoic acid occupied 98% of constituent fatty acids) in an amount of 1,145 MG/KG body-weight/day. The control group was fed normal feed and forcibly administered with water in an amount of 1,145 MG/KG body-weight/day.
In this test, the medium chain fatty acid was fed in the form of tricaprin. Tricaprin is a substance in which decanoic acid (C10), a linear saturated fatty acid having 10 carbon atoms, is bonded to glycerol. Thus, the high-content neutral fats are medium chain fatty acids of the present invention.
From the second week after the arrival, all rats were fed high-fat feed. Then, the medium chain fatty acid administration group was forcibly administered with the high-content neutral fats in an amount of 1,145 MG/KG body-weight/day in addition to the high-fat feed. Furthermore, the control group was forcibly administered with water in an amount of 1,145 MG/KG body-weight/day in addition to the high-fat feed.
Three weeks after the arrival, an abdominal aortic aneurysm induction treatment was performed. In the abdominal aortic aneurysm induction treatment, a catheter is inserted in the rat abdominal aorta and the inserted catheter is ligated with the abdominal aorta. The treatment was performed according to the method disclosed in PTL 3.
After that, for the next four weeks, the control group had been fed the high-fat feed and forcibly administered with water in an amount of 1,145 MG/KG body-weight/day. Furthermore, the medium chain fatty acid administration group had been fed the high-fat feed and forcibly administered with the high-content neutral fats. Then, four weeks after the abdominal aortic aneurysm induction treatment, the rats were dissected.
Note that the abdominal aortic aneurysm was determined to have occurred if the blood vessel at the site where the abdominal aortic aneurysm induction treatment was performed dilated to twice or more its original thickness.
Next, test results obtained by using tricaprin (an ester of three decanoic acids and glycerol) and tricaprylin (an ester of three octanoic acids of C8 and glycerol) as the medium chain fatty acid is shown. The animal model preparation method is the same as that in Example 1. A group in which tricaprin (C10) was given is referred to as a tricaprin administration group and a group in which tricaprylin (C8) was given is referred to as a tricaprylin administration group.
Twenty-three, eleven, and eighteen model animals were prepared as a control group, the tricaprylin administration group, and the tricaprin administration group, respectively.

For series [2], the system named is abdominal aortic aneurysm. The experiment in a line: Regression of established abdominal aortic aneurysm, administration from Day 7 (Example 3). It counts as in vivo, rat. Here is the method: SD-male rats of 4 weeks old (70 to 90 G) were used. The rats were subjected to the above-described abdominal aortic aneurysm induction treatment. On Day 7, the abdomen of the rat was opened to confirm the occurrence of an abdominal aortic aneurysm, the vessel diameter was measured, and then the abdomen was closed. Subsequently, a control group was fed normal feed and water, while a tricaprin administration group was fed tricaprin in an amount of 1,145 MG/KG/day in addition to the normal feed.
Seven days after the abdominal closure (Day 14 after the abdominal aortic aneurysm induction treatment), the abdomen was opened again, and the blood vessel diameter was measured. Some rats of the control group were not subjected to laparotomy on Day 14 and continued to be fed normal feed and water. The amount of the neutral fats in the blood vessel, the amount of lipids in the blood, the blood glucose level, and the body weight were measured from the day when the abdominal aortic aneurysm induction treatment was performed.
FIGS. 3(A), 3(B), and 3(C) show the control group (depicted as “CONTROL”), and FIGS. 3(D), 3(E), and 3(F) show the tricaprin administration group (depicted as “C10-TG”).
Photographs under “DAY 0” are photographs taken when the abdominal aortic aneurysm induction treatment was performed (FIG. 3(A) and FIG. 3(D)). […]

Setting [3] is: Example 2, number of rats (tricaprylin 11, tricaprin 18 animals).
[4] abbreviates: Example 2, number of rats (tricaprylin 11, tricaprin 18 animals), dilated to twice or more original thickness.

Turning to `CCCCCCCCCC(=O)OCC(COC(=O)CCCCCCCCC)OC(=O)CCCCCCCCC` [Tricaprin, tricaprin], the “Frequency of occurrence of abdominal aortic aneurysm” value came to 12.5% in series [1] (Example 1, 1,145 MG/KG body-weight/day, control group 38.9) and 5.6% in series [1] (Example 2, control group 30.4). Also, the “Rupture rate of abdominal aortic aneurysm” value in series [1] (Example 1) and in series [1] (Example 2) was 0% each time. The “Rupture confirmed (abdominal aortic aneurysm)” value in series [1] (Example 1) and in series [1] (Example 2) was 0 each time. Besides, the “Rupture not confirmed (abdominal aortic aneurysm)” value in series [1] (Example 1) and in series [1] (Example 2) was 1 in each case. Moreover, the “Occurrence not confirmed (abdominal aortic aneurysm)” value in series [1] (Example 1, number of rats of 8, 1,145 MG/KG body-weight/day forced administration, high-fat feed, dissected four weeks after induction) was determined as 7; in series [1] (setting [3]), 17. The “Occurrence confirmed (abdominal aortic aneurysm)” value in series [1] (Example 1, number of rats of 8, vessel dilated to twice or more its original thickness, 1,145 MG/KG body-weight/day) is 1; in series [1] (setting [4]), 1. This molecule showed a Survival rate in series [1] (during the test period) of 100%. Further, the “Diameter of the aorta in the abdominal aortic aneurysm induction part” value in series [1] is on record as “about 2.2 MM”. For the same molecule, the Maximum aneurysm diameter in series [2] (Day 14, 1,145 MG/KG/day from Day 7, 2.79 MM on Day 7 before administration, control 2.81 to 3.59 MM) was 1.89 MM. Further, the “Weight gain rate versus control group” value in series [2] (Example 3, measured from the day of induction treatment) is listed as “no difference”.

In series [1] (until Day 26 after induction treatment, control declined on Day 17), `CCCCCCCC(=O)OCC(COC(=O)CCCCCCC)OC(=O)CCCCCCC` [Tricaprylin, tricaprylin] gave a Survival rate of 100%. The “Diameter of the aorta in the abdominal aortic aneurysm induction part” value in series [1] was “about 3.5 MM”. Also, in series [1] (Example 2), the “Rupture rate of abdominal aortic aneurysm” value was found to be 33.3%, the “Rupture confirmed (abdominal aortic aneurysm)” value is 1 and the “Rupture not confirmed (abdominal aortic aneurysm)” value turned out to be 2. Further, in series [1] (Example 2, control group 30.4), the “Frequency of occurrence of abdominal aortic aneurysm” value came to 27.3%. In series [1] (setting [3]), the “Occurrence not confirmed (abdominal aortic aneurysm)” value came out at 8. The “Occurrence confirmed (abdominal aortic aneurysm)” value in series [1] (setting [4]) was 3.

Source of the values: patent US20260207537A1, “PHARMACEUTICAL COMPOSITION FOR PREVENTION AND TREATMENT OF AORTIC ANEURYSM, AND PROCESSED FOOD” (priority 2020, published 2026).
